Experimental data as given in patent US9586952B2, “Polycyclic estrogen receptor modulators and uses thereof” (SERAGON PHARMACEUTICALS, INC., priority 2013, dated 2017).

How the values were obtained:
ER-α = biological target: T1, ER-α (Homo sapiens, UniProt P03372); assay: Breast Cancer Cell ER-α In Cell Western Assay (SP1); format: cell-based; conditions: MCF-7 cells, 4 or 24 hr post compound addition, SP1 antibody; for Emax: MCF7, read-out: ER-α In Cell Western Assay (SP1) Max Response; for DC50: read-out: ER-α In Cell Western Assay (SP1) IC50
T1 construct: endogenous in cells; host or cells: MCF-7
T1 sequence (P03372 1-595): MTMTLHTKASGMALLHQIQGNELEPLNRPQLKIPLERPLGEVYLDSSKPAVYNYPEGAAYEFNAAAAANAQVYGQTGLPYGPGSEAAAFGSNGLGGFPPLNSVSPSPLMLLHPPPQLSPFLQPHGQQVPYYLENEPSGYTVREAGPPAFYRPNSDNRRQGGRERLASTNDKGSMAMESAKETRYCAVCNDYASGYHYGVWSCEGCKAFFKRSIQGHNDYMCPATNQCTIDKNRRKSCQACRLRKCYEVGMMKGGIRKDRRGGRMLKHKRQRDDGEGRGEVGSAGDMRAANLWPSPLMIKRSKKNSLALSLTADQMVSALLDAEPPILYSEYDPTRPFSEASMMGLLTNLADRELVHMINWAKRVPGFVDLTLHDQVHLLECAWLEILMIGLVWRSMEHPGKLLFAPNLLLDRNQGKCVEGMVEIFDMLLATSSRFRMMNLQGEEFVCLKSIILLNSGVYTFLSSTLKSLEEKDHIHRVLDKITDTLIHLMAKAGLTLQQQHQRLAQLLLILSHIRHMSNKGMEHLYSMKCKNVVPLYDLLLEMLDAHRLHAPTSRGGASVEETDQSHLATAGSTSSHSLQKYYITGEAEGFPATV
Method in brief: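 MCF-7 cells in RPMI with 10% charcoal-stripped FBS received an eleven-point semilog series, 0.3-0.000003 μM final, for 4 or 24 hr. After fixation, ER-α stained with SP1 antibody and IRDye 800 CW, DNA with DRAQ5; % ER = 800/700 nm intensity ratio relative to untreated cells.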

MCF-7 cells = assay: MCF7 Viability Assay (Breast Cancer Cell Viability Assay); format: cell-based; conditions: 5 days' compound exposure, CellTiter-Glo; for IC50: Homo sapiens, MCF7, 120 h
Method in brief: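 Cells (320 per well, RPMI with 10% FBS and 20 mM HEPES) adhered overnight, then were exposed 5 days to an eleven-point semilog compound series, 0.3-0.000003 μM final. Viability read by CellTiter-Glo luminescence, background-subtracted, expressed as % of untreated cells.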

Row | SMILES | Emax (ER-α) [%] | DC50 (ER-α) [nM] | IC50 (MCF-7 cells) [nM] | MCF7 Viability Assay Max Response (MCF-7 cells)
1 | COc1ccc(/C(=C(\c2ccc(/C=C/C(=O)O)cc2)c2ccc(-c3cncs3)cc2)C2CCC2)c(C)c1 [Example 54, (E)-3-(4-((E)-2-Cyclobutyl-2-(4-methoxy-2-methylphenyl)-1-(4-(thiazol-5-yl)phenyl)vinyl)phenyl)acrylic acid] | ≥ 40 | ≤ 100 | ≤ 100 | ++ (++ = a single % value ≧ 40%)
2 | O=C(O)/C=C/c1ccc(/C(=C(\c2ccc(C(F)(F)F)cc2Cl)C2CCC2)c2ccc(-c3cn[nH]c3)cc2)cc1 [Example 55, (E)-3-(4-((E)-1-(4-(1H-Pyrazol-4-yl)phenyl)-2-(2-chloro-4-(trifluoromethyl)phenyl)-2-cyclobutylvinyl)phenyl)acrylic acid] | ≥ 40 | ≤ 100 | ≤ 100 | ++ (++ = a single % value ≧ 40%)
3 | O=C(O)/C=C/c1ccc(/C(=C(\c2ccc(F)cc2Cl)C2CCC2)c2ccc(-c3ccncc3)cc2)cc1 [Example 56, (E)-3-(4-((E)-2-(2-Chloro-4-fluorophenyl)-2-cyclobutyl-1-(4-(pyridin-4-yl)phenyl)vinyl)phenyl)acrylic acid] | ≥ 40 | ≤ 100 | ≤ 100 | ++ (++ = a single % value ≧ 40%)
4 | O=C(O)/C=C/c1ccc(/C(=C(\c2ncc(C(F)(F)F)cc2Cl)C2CCC2)c2ccc(N3CCOCC3)cc2)cc1 [Example 57, (E)-3-(4-((E)-2-(3-Chloro-5-(trifluoromethyl)pyridin-2-yl)-2-cyclobutyl-1-(4-morpholinophenyl)vinyl)phenyl)acrylic acid] | ≥ 40 | ≤ 100 | ≤ 100 | ++ (++ = a single % value ≧ 40%)
5 | O=C(O)/C=C/c1ccc(/C(=C(\c2ncc(C(F)(F)F)cc2Cl)C2CCC2)c2ccc(-c3cn[nH]c3)cc2)cc1 [Example 58, (E)-3-(4-((E)-1-(4-(1H-Pyrazol-4-yl)phenyl)-2-(3-chloro-5-(trifluoromethyl)pyridin-2-yl)-2-cyclobutylvinyl)phenyl)acrylic acid] | ≥ 40 | ≤ 100 | ≤ 100 | ++ (++ = a single % value ≧ 40%)
6 | O=C(O)/C=C/c1ccc(/C(=C(\c2ncc(C(F)(F)F)cc2Cl)C2CCC2)c2ccc(-c3cncs3)cc2)cc1 [Example 59, (E)-3-(4-((E)-2-(3-Chloro-5-(trifluoromethyl)pyridin-2-yl)-2-cyclobutyl-1-(4-(thiazol-5-yl)phenyl)vinyl)phenyl)acrylic acid] | ≥ 40 | ≤ 100 | ≤ 100 | ++ (++ = a single % value ≧ 40%)
7 | N#Cc1cc(N2CCOCC2)ccc1/C(=C(/c1ccc(F)cc1Cl)C1CCC1)c1ccc(/C=C/C(=O)O)cc1 [Example 60, (E)-3-(4-((E)-2-(2-Chloro-4-fluorophenyl)-1-(2-cyano-4-morpholinophenyl)-2-cyclobutylvinyl)phenyl)acrylic acid] | ≥ 40 | ≤ 100 | ≤ 100 | ++ (++ = a single % value ≧ 40%)
8 | COc1cc(C)c(/C(=C(\c2ccc(/C=C/C(=O)O)cc2)c2ccc(-c3cn[nH]c3)cc2)C2CCC2)cn1 [Example 61, (E)-3-(4-((E)-1-(4-(1H-Pyrazol-4-yl)phenyl)-2-cyclobutyl-2-(6-methoxy-4-methylpyridin-3-yl)vinyl)phenyl)acrylic acid] | ≥ 40 | ≤ 100 | ≤ 100 | ++ (++ = a single % value ≧ 40%)
9 | N#Cc1cc(Cl)ccc1/C(=C(\c1ccc(/C=C/C(=O)O)cc1)c1ccc(-c2cncs2)cc1)C1CCC1 [Example 62, (E)-3-(4-((E)-2-(4-Chloro-2-cyanophenyl)-2-cyclobutyl-1-(4-(thiazol-5-yl)phenyl)vinyl)phenyl)acrylic acid] | ≥ 40 | ≤ 100 | ≤ 100 | ++ (++ = a single % value ≧ 40%)
10 | c1ccc(/C(=C(\c2ccc(OCCN3CCCC3)cc2)c2ccc(-c3cn[nH]c3)cc2)C2CCC2)cc1 [Example 63, (Z)-4-(4-(2-cyclobutyl-2-phenyl-1-(4-(2-(pyrrolidin-1-yl)ethoxy)phenyl)vinyl)phenyl)-1H-pyrazole] | ≥ 40 | ≤ 100 | ≤ 100 | ++ (++ = a single % value ≧ 40%)
11 | CC1CCN(c2ccc(/C(=C(/c3ccccc3)C3CCC3)c3ccc(/C=C/C(=O)O)cc3)cc2)CC1 [Example 64, (E)-3-(4-((E)-2-Cyclobutyl-1-(4-(4-methylpiperidin-1-yl)phenyl)-2-phenylvinyl)phenyl)acrylic acid] | ≥ 40 | > 100 | > 100 | ++ (++ = a single % value ≧ 40%)
12 | O=C(O)/C=C/c1ccc(/C(=C(\c2ccccc2)C2CCC2)c2ccc(N3CCNCC3)cc2)cc1 [Example 65, (E)-3-(4-((E)-2-Cyclobutyl-2-phenyl-1-(4-(piperazin-1-yl)phenyl)vinyl)phenyl)acrylic acid] | ≥ 40 | ≤ 100 | ≤ 100 | ++ (++ = a single % value ≧ 40%)

Second part, led by results:

Row | Emax (ER-α) [%] | DC50 (ER-α) [nM] | IC50 (MCF-7 cells) [nM] | SMILES | MCF7 Viability Assay Max Response (MCF-7 cells)
13 | ≥ 40 | ≤ 100 | ≤ 100 | O=C(O)/C=C/c1ccc(/C(=C(\c2ccccc2)C2CCC2)c2ccc(-c3ccncc3)cc2)cc1 [Example 66, (E)-3-(4-((E)-2-Cyclobutyl-2-phenyl-1-(4-(pyridin-4-yl)phenyl)vinyl)phenyl)acrylic acid] | ++ (++ = a single % value ≧ 40%)
14 | ≥ 40 | ≤ 100 | ≤ 100 | O=C(O)/C=C/c1ccc(/C(=C(\c2ccccc2)C2CCC2)c2ccc(-c3cnn(CCO)c3)cc2)cc1 [Example 67, (E)-3-(4-((E)-2-Cyclobutyl-1-(4-(1-(2-hydroxyethyl)-1H-pyrazol-4-yl)phenyl)-2-phenylvinyl)phenyl)acrylic acid] | ++ (++ = a single % value ≧ 40%)
15 | ≥ 40 | ≤ 100 | ≤ 100 | Cc1cscc1/C(=C(\c1ccc(/C=C/C(=O)O)cc1)c1ccc(-c2cnn(CCO)c2)cc1)C1CCC1 [Example 68, (E)-3-(4-((E)-2-Cyclobutyl-1-(4-(1-(2-hydroxyethyl)-1H-pyrazol-4-yl)phenyl)-2-(4-methylthiophen-3-yl)vinyl)phenyl)acrylic acid] | ++ (++ = a single % value ≧ 40%)
16 | ≥ 40 | ≤ 100 | ≤ 100 | O=C(O)/C=C/c1ccc(/C(=C(\c2ccc(F)cc2Cl)C2CCC2)c2ccc(-c3cnn(CCO)c3)cc2)cc1 [Example 69, (E)-3-(4-((E)-2-(2-Chloro-4-fluorophenyl)-2-cyclobutyl-1-(4-(1-(2-hydroxyethyl)-1H-pyrazol-4-yl)phenyl)vinyl)phenyl)acrylic acid] | ++ (++ = a single % value ≧ 40%)
17 | ≥ 40 | ≤ 100 | ≤ 100 | CN(C)CCn1cc(-c2ccc(/C(=C(/c3ccccc3)C3CCC3)c3ccc(/C=C/C(=O)O)cc3)cc2)cn1 [Example 70, (E)-3-(4-((E)-2-Cyclobutyl-1-(4-(1-(2-(dimethylamino)ethyl)-1H-pyrazol-4-yl)phenyl)-2-phenylvinyl)phenyl)acrylic acid] | ++ (++ = a single % value ≧ 40%)
18 | ≥ 40 | ≤ 100 | ≤ 100 | Fc1ccc(/C(=C(\c2ccc(/C=C/c3nn[nH]n3)cc2)c2ccc(-c3cn[nH]c3)cc2)C2CCC2)c(Cl)c1 [Example 71, 5-((E)-4-((E)-1-(4-(1H-Pyrazol-4-yl)phenyl)-2-(2-chloro-4-fluorophenyl)-2-cyclobutylvinyl)styryl)-2H-tetrazole] | ++ (++ = a single % value ≧ 40%)
